Test results from patent US20230093099A1, “COMPOUNDS AND METHODS OF TREATING CANCERS” (CULLGEN (SHANGHAI), INC., priority 2019, published 2023).
pIC50: −log10 of the molar value.

Test system: RS4;11 cells
Experiment: Cell viability assay (CellTiter-Glo) in RS4;11 cells
Format: cell-based
Conditions: Homo sapiens, 72 h; RS4;11 ALL cells treated for three days; read-out: cell viability inhibition IC50
Procedure, shortened: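 RS4;11 cells seeded at 5000 per well, exposed for 3 days to 8- or 12-point 3-fold serial dilutions. Viability read by CellTiter-Glo luminescence; IC50 fitted by nonlinear least-squares regression.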

| pIC50 | Compound |
| --- | --- |
| > 7.00 | O=C(CN1CCC(n2cc(-c3cnc4cccc(-c5cc(F)c(CN6CCOCC6)c(F)c5)c4n3)cn2)CC1)NCCCCCCCNc1ccc2c(c1)C(=O)N(C1CCC(=O)NC1=O)C2=O (stereo not shown) [JA-179, 2-(4-(4-(8-(3,5-difluoro-4-(morpholinomethyl)phenyl)quinoxalin-2-yl)-1H-pyrazol-1-yl)piperidin-1-yl)-N-(7-((2-(2,6-dioxopiperidin-3-yl)-1,3-dioxoisoindolin-5-yl)amino)heptyl)acetamide] |
| > 7.00 | Cc1cnc(Nc2ccc(N3CCN(CC(=O)NCCCCCNc4cccc5c4C(=O)N(C4CCC(=O)NC4=O)C5=O)CC3)cc2)nc1Nc1cccc(S(=O)(=O)NC(C)(C)C)c1 (stereo not shown) [JA-093, 2-(4-(4-((4-((3-(N-(tert-butyl)sulfamoyl)phenyl)amino)-5-methylpyrimidin-2-yl)amino)phenyl)piperazin-1-yl)-N-(5-((2-(2,6-dioxopiperidin-3-yl)-1,3-dioxoisoindolin-4-yl)amino)pentyl)acetamide] |
| > 7.00 | Cc1cnc(Nc2ccc(N3CCN(C(=O)CCCCCCCNc4ccc5c(c4)C(=O)N(C4CCC(=O)NC4=O)C5=O)CC3)cc2)nc1Nc1cccc(S(=O)(=O)NC(C)(C)C)c1 (stereo not shown) [JA-231, N-(tert-butyl)-3-((2-((4-(4-(8-((2-(2,6-dioxopiperidin-3-yl)-1,3-dioxoisoindolin-5-yl)amino)octanoyl)piperazin-1-yl)phenyl)amino)-5-methylpyrimidin-4-yl)amino)benzenesulfonamide] |

Same assay, conditions: Homo sapiens, 72 h; RS4;11 cells; cell viability, 3 days, CellTiter-Glo; read-out: IC50

| Compound | pIC50 |
| --- | --- |
| Cc1cnc(Nc2ccc(N3CCN(C(=O)CCCCC(=O)N[C@H](C(=O)N4C[C@H](O)C[C@H]4C(=O)NCc4ccc(-c5scnc5C)cc4)C(C)(C)C)CC3)cc2)nc1Nc1cccc(S(=O)(=O)NC(C)(C)C)c1 [JA-024, (2S,4R)-1-((S)-2-(6-(4-(4-((4-((3-(N-(tert-Butyl)sulfamoyl)phenyl)amino)-5-methylpyrimidin-2-yl)amino)phenyl)piperazin-1-yl)-6-oxohexanamido)-3,3-dimethylbutanoyl)-4-hydroxy-N-(4-(4-methylthiazol-5-yl)benzyl)pyrrolidine-2-carboxamide] | < 5.00 |
| Cc1cnc(Nc2ccc(N3CCN(C(=O)CCC(=O)N[C@H](C(=O)N4C[C@H](O)C[C@H]4C(=O)NCc4ccc(-c5scnc5C)cc4)C(C)(C)C)CC3)cc2)nc1Nc1cccc(S(=O)(=O)NC(C)(C)C)c1 [JA-022, (2S,4R)-1-((S)-2-(4-(4-(4-((4-((3-(N-(tert-Butyl)sulfamoyl)phenyl)amino)-5-methylpyrimidin-2-yl)amino)phenyl)piperazin-1-yl)-4-oxobutanamido)-3,3-dimethylbutanoyl)-4-hydroxy-N-(4-(4-methylthiazol-5-yl)benzyl)pyrrolidine-2-carboxamide] | < 5.00 |
| O=C(CN1CCC(n2cc(-c3cnc4cccc(-c5cc(F)c(CN6CCOCC6)c(F)c5)c4n3)cn2)CC1)NCCCCCCCNc1ccc2c(c1)C(=O)N(C1CCC(=O)NC1=O)C2=O (stereo not shown) [JA-179, 2-(4-(4-(8-(3,5-difluoro-4-(morpholinomethyl)phenyl)quinoxalin-2-yl)-1H-pyrazol-1-yl)piperidin-1-yl)-N-(7-((2-(2,6-dioxopiperidin-3-yl)-1,3-dioxoisoindolin-5-yl)amino)heptyl)acetamide] | 7.11 |
| Cc1cnc(Nc2ccc(N3CCN(CC(=O)NCCOCCNc4cccc5c4C(=O)N(C4CCC(=O)NC4=O)C5=O)CC3)cc2)nc1Nc1cccc(S(=O)(=O)NC(C)(C)C)c1 (stereo not shown) [JA-087, 2-(4-(4-((4-((3-(N-(tert-Butyl)sulfamoyl)phenyl)amino)-5-methylpyrimidin-2-yl)amino)phenyl)piperazin-1-yl)-N-(2-(2-((2-(2,6-dioxopiperidin-3-yl)-1,3-dioxoisoindolin-4-yl)amino)ethoxy)ethyl)acetamide] | 6.85 |
| Cc1cnc(Nc2ccc(N3CCN(CC(=O)NCCCCCNc4cccc5c4C(=O)N(C4CCC(=O)NC4=O)C5=O)CC3)cc2)nc1Nc1cccc(S(=O)(=O)NC(C)(C)C)c1 (stereo not shown) [JA-093, 2-(4-(4-((4-((3-(N-(tert-butyl)sulfamoyl)phenyl)amino)-5-methylpyrimidin-2-yl)amino)phenyl)piperazin-1-yl)-N-(5-((2-(2,6-dioxopiperidin-3-yl)-1,3-dioxoisoindolin-4-yl)amino)pentyl)acetamide] | 7.13 |
| Cc1cnc(Nc2ccc(N3CCN(CC(=O)NCCC(=O)N[C@H](C(=O)N4C[C@H](O)C[C@H]4C(=O)NCc4ccc(-c5scnc5C)cc4)C(C)(C)C)CC3)cc2)nc1Nc1cccc(S(=O)(=O)NC(C)(C)C)c1 [JA-098, (2S,4R)-1-((S)-2-(3-(2-(4-(4-((4-((3-(N-(tert-Butyl)sulfamoyl)phenyl)amino)-5-methylpyrimidin-2-yl)amino)phenyl)piperazin-1-yl)acetamido)propanamido)-3,3-dimethylbutanoyl)-4-hydroxy-N-(4-(4-methylthiazol-5-yl)benzyl)pyrrolidine-2-carboxamide] | < 5.00 |
| Cc1ncsc1-c1ccc(CNC(=O)[C@@H]2C[C@@H](O)CN2C(=O)[C@@H](NC(=O)CCOCCOCCOCCNC(=O)CN2CCC(n3cc(-c4cnc5cccc(-c6cc(F)c(CN7CCOCC7)c(F)c6)c5n4)cn3)CC2)C(C)(C)C)cc1 [JA-151, (2S,4R)-1-((S)-17-(tert-Butyl)-1-(4-(4-(8-(3,5-difluoro-4-(morpholinomethyl)phenyl)quinoxalin-2-yl)-1H-pyrazol-1-yl)piperidin-1-yl)-2,15-dioxo-6,9,12-trioxa-3,16-diazaoctadecan-18-oyl)-4-hydroxy-N-(4-(4-methylthiazol-5-yl)benzyl)pyrrolidine-2-carboxamide] | < 5.00 |
| Cc1cnc(Nc2ccc(N3CCN(C(=O)COCC(=O)N[C@H](C(=O)N4C[C@H](O)C[C@H]4C(=O)NCc4ccc(-c5scnc5C)cc4)C(C)(C)C)CC3)cc2)nc1Nc1cccc(S(=O)(=O)NC(C)(C)C)c1 [JA-030, (2S,4R)-1-((S)-2-(2-(2-(4-(4-((4-((3-(N-(tert-Butyl)sulfamoyl)phenyl)amino)-5-methylpyrimidin-2-yl)amino)phenyl)piperazin-1-yl)-2-oxoethoxy)acetamido)-3,3-dimethylbutanoyl)-4-hydroxy-N-(4-(4-methylthiazol-5-yl)benzyl)pyrrolidine-2-carboxamide] | < 5.00 |
| CS(=O)(=O)c1ccc(-c2cccc3nc(Nc4ccc(N5CCN(C(=O)CCOCCOCCOCCOCCNc6ccc7c(c6)C(=O)N(C6CCC(=O)NC6=O)C7=O)CC5)cc4)nn23)cc1 (stereo not shown) [JA-197, 2-(2,6-Dioxopiperidin-3-yl)-5-((15-(4-(4-((5-(4-(methylsulfonyl)phenyl)-[1,2,4]triazolo[1,5-a]pyridin-2-yl)amino)phenyl)piperazin-1-yl)-15-oxo-3,6,9,12-tetraoxapentadecyl)amino)isoindoline-1,3-dione] | 5.26 |
| CS(=O)(=O)c1ccc(-c2cccc3nc(Nc4ccc(N5CCN(C(=O)CCNc6cccc7c6C(=O)N(C6CCC(=O)NC6=O)C7=O)CC5)cc4)nn23)cc1 (stereo not shown) [JA-012, 2-(2,6-Dioxo-piperidin-3-yl)-4-[3-(4-{4-[5-(4-methanesulfonyl-phenyl)-[1,2,4]triazolo[1,5-a]pyridin-2-ylamino]-phenyl}-piperazin-1-yl)-3-oxo-propylamino]-isoindole-1,3-dione] | 5.33 |
| Cc1cnc(Nc2ccc(N3CCN(C(=O)CCCCCCCNc4ccc5c(c4)C(=O)N(C4CCC(=O)NC4=O)C5=O)CC3)cc2)nc1Nc1cccc(S(=O)(=O)NC(C)(C)C)c1 (stereo not shown) [JA-231, N-(tert-butyl)-3-((2-((4-(4-(8-((2-(2,6-dioxopiperidin-3-yl)-1,3-dioxoisoindolin-5-yl)amino)octanoyl)piperazin-1-yl)phenyl)amino)-5-methylpyrimidin-4-yl)amino)benzenesulfonamide] | 7.10 |

Second part, the molecule after the results:

| pIC50 | Compound |
| --- | --- |
| < 5.00 | Cc1cnc(Nc2ccc(N3CCN(CC(=O)NCCCCCNc4ccc5c(c4)C(=O)N(C4CCC(=O)NC4=O)C5=O)CC3)cc2)nc1Nc1cccc(S(=O)(=O)NC(C)(C)C)c1 (stereo not shown) [JA-244, 2-(4-(4-((4-((3-(N-(tert-butyl)sulfamoyl)phenyl)amino)-5-methylpyrimidin-2-yl)amino)phenyl)piperazin-1-yl)-N-(5-((2-(2,6-dioxopiperidin-3-yl)-1,3-dioxoisoindolin-5-yl)amino)pentyl)acetamide] |
| 6.19 | O=C1CCC(N2C(=O)c3ccc(C#CCCCCC(=O)N4CCC(n5cc(-c6cnc7cccc(-c8cc(F)c(CN9CCOCC9)c(F)c8)c7n6)cn5)CC4)cc3C2=O)C(=O)N1 (stereo not shown) [JA-258, 5-(7-(4-(4-(8-(3,5-Difluoro-4-(morpholinomethyl)phenyl)quinoxalin-2-yl)-1H-pyrazol-1-yl)piperidin-1-yl)-7-oxohept-1-yn-1-yl)-2-(2,6-dioxopiperidin-3-yl)isoindoline-1,3-dione] |
| < 5.00 | Cc1cnc(Nc2ccc(N3CCN(CC(=O)NCCOCCNc4ccc5c(c4)C(=O)N(C4CCC(=O)NC4=O)C5=O)CC3)cc2)nc1Nc1cccc(S(=O)(=O)NC(C)(C)C)c1 (stereo not shown) [JA-237, 2-(4-(4-((4-((3-(N-(tert-butyl)sulfamoyl)phenyl)amino)-5-methylpyrimidin-2-yl)amino)phenyl)piperazin-1-yl)-N-(2-(2-((2-(2,6-dioxopiperidin-3-yl)-1,3-dioxoisoindolin-5-yl)amino)ethoxy)ethyl)acetamide] |
| < 6.30 | Cn1c(=O)n(C2CCC(=O)NC2=O)c2cccc(NCCCCCCC(=O)N3CCN(c4ccc(Nc5nc6cccc(-c7ccc(S(C)(=O)=O)cc7)n6n5)cc4)CC3)c21 (stereo not shown) [JA-285, 3-(3-Methyl-4-((7-(4-(4-((5-(4-(methylsulfonyl)phenyl)-[1,2,4]triazolo[1,5-a]pyridin-2-yl)amino)phenyl)piperazin-1-yl)-7-oxoheptyl)amino)-2-oxo-2,3-dihydro-1H-benzo[d]imidazol-1-yl)piperidine-2,6-dione] |
| 6.32 | Cc1cnc(Nc2ccc(N3CCN(CC(=O)NCCCCCCCCNc4ccc5c(c4)C(=O)N(C4CCC(=O)NC4=O)C5=O)CC3)cc2)nc1Nc1cccc(S(=O)(=O)NC(C)(C)C)c1 (stereo not shown) [JA-247, 2-(4-(4-((4-((3-(N-(tert-butyl)sulfamoyl)phenyl)amino)-5-methylpyrimidin-2-yl)amino)phenyl)piperazin-1-yl)-N-(8-((2-(2,6-dioxopiperidin-3-yl)-1,3-dioxoisoindolin-5-yl)amino)octyl)acetamide] |
| < 5.00 | O=C1CCC(N2Cc3ccc(C#CCCCCC(=O)N4CCC(n5cc(-c6cnc7cccc(-c8cc(F)c(CN9CCOCC9)c(F)c8)c7n6)cn5)CC4)cc3C2=O)C(=O)N1 (stereo not shown) [JA-259, 3-(6-(7-(4-(4-(8-(3,5-Difluoro-4-(morpholinomethyl)phenyl)quinoxalin-2-yl)-1H-pyrazol-1-yl)piperidin-1-yl)-7-oxohept-1-yn-1-yl)-1-oxoisoindolin-2-yl)piperidine-2,6-dione] |
| 6.14 | Cc1cnc(Nc2ccc(N3CCN(CC(=O)NCCOCCOCCNc4ccc5c(c4)C(=O)N(C4CCC(=O)NC4=O)C5=O)CC3)cc2)nc1Nc1cccc(S(=O)(=O)NC(C)(C)C)c1 (stereo not shown) [JA-238, 2-(4-(4-((4-((3-(N-(tert-butyl)sulfamoyl)phenyl)amino)-5-methylpyrimidin-2-yl)amino)phenyl)piperazin-1-yl)-N-(2-(2-(2-((2-(2,6-dioxopiperidin-3-yl)-1,3-dioxoisoindolin-5-yl)amino)ethoxy)ethoxy)ethyl)acetamide] |
| < 6.30 | Cn1c(=O)n(C2CCC(=O)NC2=O)c2cccc(NCCCCC(=O)N3CCC(n4cc(-c5cnc6cccc(-c7cc(F)c(CN8CCOCC8)c(F)c7)c6n5)cn4)CC3)c21 (stereo not shown) [JA-286, 3-(4-((5-(4-(4-(8-(3,5-Difluoro-4-(morpholinomethyl)phenyl)quinoxalin-2-yl)-1H-pyrazol-1-yl)piperidin-1-yl)-5-oxopentyl)amino)-3-methyl-2-oxo-2,3-dihydro-1H-benzo[d]imidazol-1-yl)piperidine-2,6-dione] |
